Assay results reported in BigSolDB 2.1.

Conditions: in formic acid

OC1OC[C@@H](O)[C@H](O)[C@H]1O (some centres undefined)
Conditions	solubility (mole fraction)
300.45 K	0.13
301.85 K	0.139
303.25 K	0.146
305.15 K	0.154
306.75 K	0.161
308.15 K	0.168
309.95 K	0.175
311.65 K	0.182
313.45 K	0.191
315.75 K	0.2
317.45 K	0.208
320.35 K	0.223
323.15 K	0.237
324.85 K	0.244
